Measurements published in patent US11370774B2, “Substituted benzofuran, benzopyrrole, benzothiophene, and structurally related complement inhibitors” (BioCryst Pharmaceuticals, Inc., priority 2018, dated 2022).
pIC50: −log10 of the molar value.

biological target: Factor D (Homo sapiens (Human), UniProt P00746); experiment: Factor D esterolytic assay (Z-Lys-SBzl substrate, DTNB, 405 nm); assay type: biochemical; conditions: Z-Lys-SBzl 1.29 mM, pH 7.5, 10% DMSO, tested a minimum of three times, read-out: Measured Ki (IC50) Value for Compounds: IC50
How it was run: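 Human Factor D ([…]) with 1.29 mM Z-Lys-SBzl in 100 mM HEPES, 500 mM NaCl, pH 7.5, 10% DMSO; substrate added immediately or after room-temperature preincubation. Released thiol reacted with DTNB, rate followed at 405 nm for 600 sec, 690 nm background subtracted. IC50 from percent inhibition versus uninhibited rate, n≥3.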

Factor D, sequence (P00746 26-253): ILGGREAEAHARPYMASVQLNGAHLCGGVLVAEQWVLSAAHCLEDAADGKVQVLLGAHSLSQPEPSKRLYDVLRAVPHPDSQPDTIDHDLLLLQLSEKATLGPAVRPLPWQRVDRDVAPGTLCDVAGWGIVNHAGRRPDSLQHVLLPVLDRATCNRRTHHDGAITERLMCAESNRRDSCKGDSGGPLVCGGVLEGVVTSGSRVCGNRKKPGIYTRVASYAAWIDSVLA

Question: `NCc1cccc(-c2cc(COc3ccccc3CC(=O)O)cc3nccn23)c1` [Compound 107f, 2-(2-((5-(3-(aminomethyl)phenyl)imidazo[1,2-a]pyridin-7-yl)methoxy)phenyl)acetic acid] was tested. Which pIC50 did it give?
Answer: The pIC50 was over 6.00.

Question: With `NCc1cccc(-c2cc(COc3ccccc3CC(=O)O)cc3cc(C(O)C(F)(F)F)oc23)c1` (stereo not drawn) [Compound 103d, 2-(2-((7-(3-(aminomethyl)phenyl)-2-(2,2,2-trifluoro-1-hydroxyethyl)benzofuran-5-yl)methoxy)phenyl)acetic acid] as the molecule, how does the pIC50 read?
Answer: Its pIC50 is over 6.00.

Question: With `COc1ccc(CC(=O)O)c(OCc2cc(-c3cccc(CN)c3F)c3occc3c2)c1` [Compound 465b, 2-(2-((7-(3-(aminomethyl)-2-fluorophenyl)benzofuran-5-yl)methoxy)-4-methoxyphenyl)acetic acid] as the molecule, how does the pIC50 read?
Answer: Its pIC50 is over 6.00.

Question: With `CC(=O)c1ccc(CC(=O)O)c(OCc2cc(-c3cccc(CN)c3F)c3occc3c2)c1` [Compound 479d, 2-(4-acetyl-2-((7-(3-(aminomethyl)-2-fluorophenyl)benzofuran-5-yl)methoxy)phenyl)acetic acid] as the molecule, how does the pIC50 read?
Answer: The pIC50 was over 6.00.

Question: `COCc1cc2cc(COc3ccc(F)cc3CC(=O)O)cc(-c3cccc(CN)c3F)c2o1` [Compound 463b, 2-(2-((7-(3-(aminomethyl)-2-fluorophenyl)-2-(methoxymethyl)benzofuran-5-yl)methoxy)-5-fluorophenyl)acetic acid] was tested. Which pIC50 did it give?
Answer: The pIC50 was over 6.00.

Question: `NCc1cccc(-c2cc(COc3ccc(F)cc3CC(=O)O)c(F)c3ccoc23)c1F` [Compound 387b, 2-(2-((7-(3-(aminomethyl)-2-fluorophenyl)-4-fluorobenzofuran-5-yl)methoxy)-5-fluorophenyl)acetic acid] was tested. Which pIC50 did it give?
Answer: The pIC50 was over 6.00.

Question: How did the pIC50 turn out when `CN(C)c1nc2cc(C(=O)Nc3ccccc3CC(=O)O)cc(-c3cccc(CN)c3)c2o1` [Compound 61f, 2-(2-(7-(3-(aminomethyl)phenyl)-2-(dimethylamino)benzo[d]oxazole-5-carboxamido)phenyl)acetic acid] was run?
Answer: The pIC50 was 5.00 to 6.00.

Question: How did the pIC50 turn out when `NCc1cccc(-c2cc(COc3ccccc3CC(=O)O)nc3ccoc23)c1` [Compound 119e, 2-(2-((7-(3-(aminomethyl)phenyl)furo[3,2-b]pyridin-5-yl)methoxy)phenyl)acetic acid] was run?
Answer: The pIC50 was over 6.00.

Question: With `COCc1cc2cc(COc3cc(F)ccc3CC(=O)O)cc(-c3ccnc(CN)c3)c2o1` [Compound 515c, 2-(2-((7-(2-(aminomethyl)pyridin-4-yl)-2-(methoxymethyl)benzofuran-5-yl)methoxy)-4-fluorophenyl)acetic acid] as the molecule, how does the pIC50 read?
Answer: Its pIC50 is over 6.00.

Question: How did the pIC50 turn out when `NCc1cccc(-c2nc(C(=O)Nc3ccccc3CC(=O)O)c3cccn3n2)c1F` [Compound 34f, 2-(2-(2-(3-(aminomethyl)-2-fluorophenyl)pyrrolo[2,1-f][1,2,4]triazine-4-carboxamido)phenyl)acetic acid] was run?
Answer: The pIC50 was over 6.00.

Question: `CC(C)(O)c1cc2cc(COc3ccccc3CC(=O)O)cc(-c3cccc(CN)c3)c2o1` [Compound 104e, 2-(2-((7-(3-(aminomethyl)phenyl)-2-(2-hydroxypropan-2-yl)benzofuran-5-yl)methoxy)phenyl)acetic acid] was tested. Which pIC50 did it give?
Answer: Its pIC50 is over 6.00.

Question: How did the pIC50 turn out when `Cc1ccc(CC(=O)O)c(OCc2cc(-c3cccc(CN)c3)c3ccn(C)c3c2)c1` [Compound 358c, 2-(2-((4-(3-(aminomethyl)phenyl)-1-methyl-1H-indol-6-yl)methoxy)-4-methylphenyl)acetic acid] was run?
Answer: Its pIC50 is over 6.00.

Question: How did the pIC50 turn out when `NCc1cccc(-c2cc(C(=O)Nc3ccccc3CC(=O)O)cc3[nH]ncc23)c1` [Compound 7d, 2-(2-(4-(3-(aminomethyl)phenyl)-1H-indazole-6-carboxamido)phenyl)acetic acid] was run?
Answer: The pIC50 was over 6.00.

Question: `Cc1ccc(CC(=O)O)c(NC(=O)c2nc(-c3cccc(CN)c3)nn3cccc23)c1` [Compound 39d, 2-(2-(2-(3-(aminomethyl)phenyl)pyrrolo[2,1-f][1,2,4]triazine-4-carboxamido)-4-methylphenyl)acetic acid] was tested. Which pIC50 did it give?
Answer: Its pIC50 is over 6.00.

Question: `NCc1cc(-c2cc(COc3ccccc3CC(=O)O)cc3ccoc23)c2occc2c1` [Compound 335d, 2-(2-((5′-(aminomethyl)-[7,7′-bibenzofuran]-5-yl)methoxy)phenyl)acetic acid] was tested. Which pIC50 did it give?
Answer: The pIC50 was under 5.00.

Question: How did the pIC50 turn out when `N#Cc1ccc(CC(=O)O)c(OCc2cc(-c3cccc(C(N)CF)c3)c3occc3c2)c1` (single isomer, unassigned; (+)) [Compound 412b, (+)-2-(2-((7-(3-(1-amino-2-fluoroethyl)phenyl)benzofuran-5-yl)methoxy)-4-cyanophenyl)acetic acid] was run?
Answer: The pIC50 was over 6.00.

Question: `COCc1cc2cc(COc3ccccc3CC(=O)O)cc(-c3cccc(CN)c3)c2o1` [Compound 96e, 2-(2-((7-(3-(aminomethyl)phenyl)-2-(methoxymethyl)benzofuran-5-yl)methoxy)phenyl)acetic acid] was tested. Which pIC50 did it give?
Answer: Its pIC50 is over 6.00.

Question: `COCc1cc2cc(COc3ccccc3CC(=O)O)cc(-c3cccc(CN)c3F)c2o1` [Compound 99b, 2-(2-((7-(3-(aminomethyl)-2-fluorophenyl)-2-(methoxymethyl)benzofuran-5-yl)methoxy)phenyl)acetic acid] was tested. Which pIC50 did it give?
Answer: The pIC50 was over 6.00.

Question: `NCc1cccc(-c2cc(COc3ccccc3CC(=O)O)cc3cc(CNCC4CCCNC4)oc23)c1` (stereo not drawn) [Compound 194d, 2-(2-((7-(3-(aminomethyl)phenyl)-2-(((piperidin-3-ylmethyl)amino)methyl)benzofuran-5-yl)methoxy)phenyl)acetic acid] was tested. Which pIC50 did it give?
Answer: The pIC50 was over 6.00.

Question: `NCc1nccc(-c2cc(COc3cc(F)ccc3CC(=O)O)cc3ccoc23)c1F` [Compound 364d, 2-(2-((7-(2-(aminomethyl)-3-fluoropyridin-4-yl)benzofuran-5-yl)methoxy)-4-fluorophenyl)acetic acid] was tested. Which pIC50 did it give?
Answer: The pIC50 was over 6.00.

Question: With `Cc1c(CN)cccc1-c1cc(COc2ccccc2CC(=O)O)cc2ccoc12` [Compound 68c, 2-(2-((7-(3-(aminomethyl)-2-methylphenyl)benzofuran-5-yl)methoxy)phenyl)acetic acid] as the molecule, how does the pIC50 read?
Answer: Its pIC50 is over 6.00.

Question: With `CC(=O)c1ccc(CC(=O)O)c(OCc2cc(-c3ccnc(CN)c3F)c3occc3c2)c1` [Compound 505d, 2-(4-acetyl-2-((7-(2-(aminomethyl)-3-fluoropyridin-4-yl)benzofuran-5-yl)methoxy)phenyl)acetic acid] as the molecule, how does the pIC50 read?
Answer: Its pIC50 is over 6.00.

Question: `N#Cc1ccc(CC(=O)O)c(OCc2cc(-c3cccc(CN)c3F)c3occc3c2)c1` [Compound 414b, 2-(2-((7-(3-(aminomethyl)-2-fluorophenyl)benzofuran-5-yl)methoxy)-4-cyanophenyl)acetic acid] was tested. Which pIC50 did it give?
Answer: The pIC50 was over 6.00.

Question: With `COCc1cc2cc(COc3cc(C)ccc3CC(=O)O)cc(-c3ccnc(CN)c3)c2o1` [Compound 454d, 2-(2-((7-(2-(aminomethyl)pyridin-4-yl)-2-(methoxymethyl)benzofuran-5-yl)methoxy)-4-methylphenyl)acetic acid] as the molecule, how does the pIC50 read?
Answer: Its pIC50 is over 6.00.

Question: How did the pIC50 turn out when `CC(C)n1ccc2c(-c3ccnc(CN)c3F)cc(COc3ccccc3CC(=O)O)cc21` [Compound 121b, 2-(2-((4-(2-(aminomethyl)-3-fluoropyridin-4-yl)-1-isopropyl-1H-indol-6-yl)methoxy)phenyl)acetic acid] was run?
Answer: Its pIC50 is over 6.00.

Question: With `NCc1cccc(-c2cc(COc3ccccc3CC(=O)O)cc3sccc23)c1F` [Compound 117b, 2-(2-((4-(3-(aminomethyl)-2-fluorophenyl)benzo[b]thiophen-6-yl)methoxy)phenyl)acetic acid] as the molecule, how does the pIC50 read?
Answer: Its pIC50 is over 6.00.

Question: With `NCCCNCc1cc2cc(COc3ccccc3CC(=O)O)cc(-c3cccc(CN)c3)c2o1` [Compound 195d, 2-(2-((7-(3-(aminomethyl)phenyl)-2-(((3-aminopropyl)amino)methyl)benzofuran-5-yl)methoxy)phenyl)acetic acid] as the molecule, how does the pIC50 read?
Answer: Its pIC50 is over 6.00.

Question: How did the pIC50 turn out when `CCCc1cc2cc(COc3ccccc3CC(=O)O)cc(-c3ccnc(CN)c3F)c2o1` [Compound 190c, 2-(2-((7-(2-(aminomethyl)-3-fluoropyridin-4-yl)-2-propylbenzofuran-5-yl)methoxy)phenyl)acetic acid] was run?
Answer: The pIC50 was over 6.00.

Question: With `COc1ncc(-c2ccc(CC(=O)O)c(OCc3cc(-c4cccc(CN)c4)c4occc4c3)c2)cc1C` [Compound 322d, 2-(2-((7-(3-(aminomethyl)phenyl)benzofuran-5-yl)methoxy)-4-(6-methoxy-5-methylpyridin-3-yl)phenyl)acetic acid] as the molecule, how does the pIC50 read?
Answer: Its pIC50 is over 6.00.

Question: `NCc1cccc(-c2cc(C(=O)Nc3ccccc3CC(=O)O)cc3[nH]ccc23)c1F` [Compound 37c, 2-(2-(4-(3-(aminomethyl)-2-fluorophenyl)-1H-indole-6-carboxamido)phenyl)acetic acid] was tested. Which pIC50 did it give?
Answer: The pIC50 was over 6.00.

Question: `CC(C)(C)c1ccc(CC(=O)O)c(OCc2cc(-c3cccc(CN)c3)c3occc3c2)c1` [Compound 317f, 2-(2-((7-(3-(aminomethyl)phenyl)benzofuran-5-yl)methoxy)-4-(tert-butyl)phenyl)acetic acid] was tested. Which pIC50 did it give?
Answer: The pIC50 was over 6.00.

Question: `CCc1ccc(CC(=O)O)c(OCc2cc(-c3cccc(CN)c3F)c3oc(F)cc3c2)c1` [Compound 470b, 2-(2-((7-(3-(aminomethyl)-2-fluorophenyl)-2-fluorobenzofuran-5-yl)methoxy)-4-ethylphenyl)acetic acid] was tested. Which pIC50 did it give?
Answer: Its pIC50 is over 6.00.

Question: `NCc1cccc(-c2cc(COc3ccccc3CC(=O)O)cc3nncn23)c1` [Compound 159f, 2-(2-((5-(3-(aminomethyl)phenyl)-[1,2,4]triazolo[4,3-a]pyridin-7-yl)methoxy)phenyl)acetic acid] was tested. Which pIC50 did it give?
Answer: The pIC50 was 5.00 to 6.00.

Question: How did the pIC50 turn out when `CCCc1ccc(CC(=O)O)c(OCc2cc(-c3cccc(CN)c3)c3occc3c2)c1` [Compound 266g, 2-(2-((7-(3-(aminomethyl)phenyl)benzofuran-5-yl)methoxy)-4-propylphenyl)acetic acid] was run?
Answer: Its pIC50 is over 6.00.

Question: `COCc1cc2cc(COc3cc(NC(C)=O)ccc3CC(=O)O)cc(-c3cccc(CN)c3F)c2o1` [Compound 441c, 2-(4-acetamido-2-((7-(3-(aminomethyl)-2-fluorophenyl)-2-(methoxymethyl)benzofuran-5-yl)methoxy)phenyl)acetic acid] was tested. Which pIC50 did it give?
Answer: Its pIC50 is over 6.00.

Question: With `Cc1c(COc2ccccc2CC(=O)O)cc(-c2cccc(CN)c2)c2occc12` [Compound 413n, 2-(2-((7-(3-(aminomethyl)phenyl)-4-methylbenzofuran-5-yl)methoxy)phenyl)acetic acid] as the molecule, how does the pIC50 read?
Answer: Its pIC50 is over 6.00.
